US7060822B1, “2-pyrazolin-5-ones” (Abbott GmbH & Co. KG, priority 1999, dated 2006)

Row | Compound | melting point
1 | O=C1NN=C(Cc2ccccc2)C1=Cc1c[nH]c2ncccc12 [Example 333, 4-[(7-Azaindol-3-yl)methylene]-3-benzyl-2-pyrazolin-5-one] | 274 to 277 °C
2 | O=C1NN=C(Cc2ccccc2)C1=Cc1cn(CCCCO)c2ncccc12 [Example 334, 3-Benzyl-4-{[1-(4-hydroxybutyl)-7-azaindol-3-yl]methylene}-2-pyrazolin-5-one] | 176 to 179 °C
3 | COc1ccc(OCC2=NNC(=O)C2=Cc2c[nH]c3ncccc23)cc1 [Example 335, 4-[(7-Azaindol-3-yl)methylene]-3-(4-methoxyphenyloxymethyl)-2-pyrazolin-5-one] | 300 to 302 °C
4 | COc1ccc(CC2=NNC(=O)C2=Cc2c[nH]c3ncccc23)cc1 [Example 338, 4-[(7-Azaindol-3-yl)methylene]-3-(4-methoxybenzyl)-2-pyrazolin-5-one] | 273 to 276 °C
5 | O=C1NN=C(Nc2ccccc2)C1=Cc1c[nH]c2ncccc12 [Example 339, 4-[(7-Azaindol-3-yl)methylene]-3-phenylamino-2-pyrazolin-5-one] | 249 to 252 °C
6 | Cc1ccc(CC2=NNC(=O)C2=Cc2c[nH]c3ncccc23)cc1 [Example 340, 4-[(7-Azaindol-3-yl)methylene]-3-(4-methylbenzyl)-2-pyrazolin-5-one] | > 300 °C
7 | O=C1NN=C(CCc2ccc(O)cc2)C1=Cc1c[nH]c2ncccc12 [Example 341, 4-[(7-Azaindol-3-yl)methylene]-3-(4-hydroxyphenylethyl)-2-pyrazolin-5-one] | 270 to 272 °C
8 | O=C1NN=C(CCc2ccc(O)cc2)C1=Cc1cn(CCCCO)c2ncccc12 [Example 342, 4-{[1-(4-Hydroxybutyl)-7-azaindol-3-yl]methylene}-3-(4-hydroxyphenylethyl)-2-pyrazolin-5-one] | 211 to 212 °C
9 | O=C1NN=C(C2CCC2)C1=Cc1c[nH]c2ncccc12 [Example 345, 4-[(7-Azaindol-3-yl)methylene]-3-cyclobutyl-2-pyrazolin-5-one] | 300 to 302 °C
10 | O=C1NN=C(c2ccccc2)C1=Cc1c[nH]c2ncccc12 [Example 347, 4-[(7-Azaindol-3-yl)methylene]-3-phenyl-2-pyrazolin-5-one] | 280 to 282 °C
11 | O=C1NN=C(CCc2ccccc2)C1=Cc1c[nH]c2ncccc12 [Example 357, 4-[(7-Azaindol-3-yl)methylene]-3-phenylethyl-2-pyrazolin-5-one] | 317 to 319 °C
12 | CN(C)c1ccc(C=C2C(=O)NN=C2Cc2ccccc2)cc1 [Example 358, 3-Benzyl-4-[(4-dimethylaminophenyl)methylene]-2-pyrazolin-5-one] | 253 to 255 °C
13 | CN(C)c1ccc(C=C2C(=O)NN=C2CCc2ccccc2)cc1 [Example 360, 4-[(4-Dimethylaminophenyl)methylene]-3-phenylethyl-2-pyrazolin-5-one] | 224 to 225 °C
14 | CN(C)c1ccc(C=C2C(=O)NN=C2C2CC2)cc1 [Example 361, 3-Cyclopropyl-4-[(4-dimethylaminophenyl)methylene]-2-pyrazolin-5-one] | 280 to 289 °C
15 | O=C1NN=C(C2CC2)C1=Cc1ncc[nH]1 [Example 365, 3-Cyclopropyl-4-[(imidazol-2-yl)methylene]-2-pyrazolin-5-one] | 264 to 266 °C
16 | O=C1NN=C(C2CC2)C1=Cc1cccs1 [Example 367, 3-Cyclopropyl-4-[(thien-2-yl)methylene]-2-pyrazolin-5-one] | 275 to 277 °C

Other lines, results leading:

Row | melting point | Compound
17 | 258 to 260 °C | CC(C)OC1=NNC(=O)C1=Cc1c[nH]c2ncccc12 [Example 336, 4-[(7-Azaindol-3-yl)methylene]-3-isopropoxy-2-pyrazolin-5-one]
18 | > 300 °C | NC1=NNC(=O)C1=Cc1c[nH]c2ncccc12 [Example 337, 3-Amino-4-[(7-azaindol-3-yl)methylene]-2-pyrazolin-5-one]
19 | 300 °C (dec.) | CC(C)C1=NNC(=O)C1=Cc1c[nH]c2ncccc12 [Example 343, 4-[(7-Azaindol-3-yl)methylene]-3-isopropyl-2-pyrazolin-5-one]
20 | 245 to 246 °C | O=C1NN=C(C2CC2)C1=Cc1c[nH]c2ncccc12 [Example 344, 4-[(7-Azaindol-3-yl)methylene]-3-cyclopropyl-2-pyrazolin-5-one]
21 | 197 to 198 °C | CC(C)OC1=NNC(=O)C1=Cc1ccc(N(C)C)cc1 [Example 359, 4-[(4-Dimethylaminophenyl)methylene]-3-isopropoxy-2-pyrazolin-5-one]
22 | 228 to 230 °C | Cc1n[nH]cc1C=C1C(=O)NN=C1OC(C)C [Example 362, 3-Isopropoxy-4-[(3-methylpyrazol-4-yl)methylene]-2-pyrazolin-5-one]
23 | 265 to 267 °C | Cc1n[nH]cc1C=C1C(=O)NN=C1C1CC1 [Example 363, 3-Cyclopropyl-4-[(3-methylpyrazol-4-yl)methylene]-2-pyrazolin-5-one]
24 | 212 to 214 °C | CC(C)OC1=NNC(=O)C1=Cc1ncc[nH]1 [Example 364, 4-[(Imidazol-2-yl)methylene]-3-isopropoxy-2-pyrazolin-5-one]
25 | 259 to 260 °C | CC(C)OC1=NNC(=O)C1=Cc1c[nH]cn1 [Example 366, 4-[(Imidazol-4-yl)methylene]-3-isopropoxy-2-pyrazolin-5-one]
26 | 241 to 242 °C | CC(C)C1=NN(C)C(=O)C1=Cc1c[nH]c2ccccc12 [Example 368, 4[(Indol-3-yl)methylene]-3-isopropyl-1-methyl-2-pyrazolin-5-one]
27 | 252 to 255 °C | CC(C)OC1=NNC(=O)C1=Cc1cc[nH]c1 [Example 369, 3-Isopropoxy-4-[(pyrrol-3-yl)methylene]-2-pyrazolin-5-one]
28 | > 300 °C | CC(C)OC1=NNC(=O)C1=Cc1ccc(O)c2ncccc12 [Example 370, 4-[(8-Hydroxyquinolin-5-yl)methylene]-3-isopropoxy-2-pyrazolin-5-one]
